Activity calls are given as the source filed them.
How the values were obtained:
[1] = target: T1, Endoribonuclease toxin MazF (Escherichia coli K-12, UniProt P0AE70); assay: MazF toxin RNase activators, dose response, biochemical, fluorescence, single-stranded RNA substrate, uHTS hits (AID 588481); format: functional
T1 sequence (P0AE70 whole entry): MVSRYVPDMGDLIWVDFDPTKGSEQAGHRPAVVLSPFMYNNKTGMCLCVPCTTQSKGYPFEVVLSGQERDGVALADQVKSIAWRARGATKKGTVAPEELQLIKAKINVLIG

[2] = target: T1, Endoribonuclease toxin MazF; assay: fluorescent RNA oligo signal without MazF, dose response, counter-screen for MazEF activator project, biochemical, fluorescence, single-stranded RNase substrate (AID 588502); format: functional
[3] = tested on: Streptococcus sp. 'group A'; assay: growth inhibition of control SK(-) GAS strain, dose response, counter-screen for streptokinase expression inhibitor project, luminescence, kanamycin, BacTiterGlo, confirmation (AID 1900); format: functional, organism-based
[4] = target: Beta-galactosidase (Escherichia coli, UniProt Q8VNN2); assay: PubChem AID 485352; format: functional
Sequence of Beta-galactosidase (Q8VNN2 whole entry): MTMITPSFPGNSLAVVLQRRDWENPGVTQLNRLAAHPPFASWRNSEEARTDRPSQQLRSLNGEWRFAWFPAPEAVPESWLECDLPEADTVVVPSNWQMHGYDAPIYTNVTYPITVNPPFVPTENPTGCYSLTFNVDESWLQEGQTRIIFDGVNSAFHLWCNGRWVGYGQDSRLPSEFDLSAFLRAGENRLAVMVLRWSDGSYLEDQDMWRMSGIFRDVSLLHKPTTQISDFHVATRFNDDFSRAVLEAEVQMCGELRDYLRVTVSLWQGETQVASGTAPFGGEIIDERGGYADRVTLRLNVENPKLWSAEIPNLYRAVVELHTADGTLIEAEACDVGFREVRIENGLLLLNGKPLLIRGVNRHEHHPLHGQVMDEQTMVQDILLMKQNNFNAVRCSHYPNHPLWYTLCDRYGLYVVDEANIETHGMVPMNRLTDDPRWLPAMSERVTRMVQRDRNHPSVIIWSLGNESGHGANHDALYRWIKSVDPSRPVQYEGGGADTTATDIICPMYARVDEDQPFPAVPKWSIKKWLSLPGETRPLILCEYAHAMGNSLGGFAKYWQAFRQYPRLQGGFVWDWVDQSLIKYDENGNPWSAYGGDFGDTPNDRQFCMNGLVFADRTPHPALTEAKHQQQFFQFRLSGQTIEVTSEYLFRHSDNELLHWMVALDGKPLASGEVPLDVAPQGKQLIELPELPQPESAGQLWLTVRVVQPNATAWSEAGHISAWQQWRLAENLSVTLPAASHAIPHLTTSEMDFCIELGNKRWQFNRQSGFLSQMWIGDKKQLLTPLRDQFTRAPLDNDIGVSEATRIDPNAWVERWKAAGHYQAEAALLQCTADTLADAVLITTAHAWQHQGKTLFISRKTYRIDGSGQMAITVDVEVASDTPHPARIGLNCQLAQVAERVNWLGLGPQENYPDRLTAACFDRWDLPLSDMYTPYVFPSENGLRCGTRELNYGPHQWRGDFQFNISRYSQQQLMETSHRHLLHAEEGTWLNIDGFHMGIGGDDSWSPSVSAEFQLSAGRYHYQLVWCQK

[5] = target: T2, Type-1 angiotensin II receptor (Homo sapiens, UniProt P30556); assay: AT1 receptor antagonists, dose response, selectivity assay for APJ receptor antagonist project, cell-based, uHTS hits (AID 463214); format: functional;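 further: antagonist potency against angiotensin II stimulated AT1 response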
T2 sequence (P30556 whole entry): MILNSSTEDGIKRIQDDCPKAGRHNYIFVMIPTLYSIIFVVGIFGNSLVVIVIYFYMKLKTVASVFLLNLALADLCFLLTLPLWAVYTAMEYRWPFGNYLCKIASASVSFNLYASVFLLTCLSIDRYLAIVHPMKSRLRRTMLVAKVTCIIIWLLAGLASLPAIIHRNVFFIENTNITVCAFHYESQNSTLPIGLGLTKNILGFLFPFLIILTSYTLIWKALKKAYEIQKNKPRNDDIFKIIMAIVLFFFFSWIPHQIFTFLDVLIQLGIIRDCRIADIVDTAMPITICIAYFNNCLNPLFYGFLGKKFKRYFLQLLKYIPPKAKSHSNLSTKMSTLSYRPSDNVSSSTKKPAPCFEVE

[6] = tested on: Streptococcus; assay: Group A Streptococcus viability loss, dose response, counter-screen for streptokinase expression inhibitor project, luminescence, BacTiterGlo (AID 1915); format: functional, organism-based;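 further: potency for reduction of bacterial viability or growth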
[7] = target: Ras and Rab interactor 1/Tyrosine-protein kinase ABL1 (Homo sapiens, UniProt P00519+Q13671); format: functional;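 further: biochemical TR-FRET dose-response test measuring inhibition of binding between Rin1 and Abl proteins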
Sequence of Ras and Rab interactor 1/Tyrosine-protein kinase ABL1 (P00519 whole entry): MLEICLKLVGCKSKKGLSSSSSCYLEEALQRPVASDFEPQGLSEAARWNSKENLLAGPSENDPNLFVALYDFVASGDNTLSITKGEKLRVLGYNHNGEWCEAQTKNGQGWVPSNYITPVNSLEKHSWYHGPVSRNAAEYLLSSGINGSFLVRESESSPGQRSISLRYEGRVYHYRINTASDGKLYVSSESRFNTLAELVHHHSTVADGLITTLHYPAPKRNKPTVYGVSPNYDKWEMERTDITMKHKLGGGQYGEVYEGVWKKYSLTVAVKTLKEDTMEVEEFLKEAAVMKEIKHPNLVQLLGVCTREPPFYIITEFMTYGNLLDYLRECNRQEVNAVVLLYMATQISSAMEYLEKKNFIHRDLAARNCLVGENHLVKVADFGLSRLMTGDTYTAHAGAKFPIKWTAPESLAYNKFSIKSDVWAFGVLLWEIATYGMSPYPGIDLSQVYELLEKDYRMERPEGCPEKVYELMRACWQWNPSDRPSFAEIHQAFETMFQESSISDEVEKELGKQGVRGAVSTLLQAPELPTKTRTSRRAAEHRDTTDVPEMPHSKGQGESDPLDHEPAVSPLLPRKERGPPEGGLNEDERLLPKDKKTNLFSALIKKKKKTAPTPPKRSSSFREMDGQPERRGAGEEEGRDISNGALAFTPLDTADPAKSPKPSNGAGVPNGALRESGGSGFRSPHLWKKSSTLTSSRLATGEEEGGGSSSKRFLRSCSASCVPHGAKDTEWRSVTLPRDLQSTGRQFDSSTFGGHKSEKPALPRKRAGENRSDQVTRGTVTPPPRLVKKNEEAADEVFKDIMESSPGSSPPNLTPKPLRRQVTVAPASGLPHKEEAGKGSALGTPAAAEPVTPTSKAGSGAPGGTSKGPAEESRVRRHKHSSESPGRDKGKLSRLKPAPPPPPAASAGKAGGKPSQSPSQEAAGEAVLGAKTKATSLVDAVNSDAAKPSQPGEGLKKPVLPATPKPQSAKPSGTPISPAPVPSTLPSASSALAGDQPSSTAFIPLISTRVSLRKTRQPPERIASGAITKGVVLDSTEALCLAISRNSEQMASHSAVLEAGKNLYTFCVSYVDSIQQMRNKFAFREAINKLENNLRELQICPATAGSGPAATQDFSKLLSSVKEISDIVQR
Sequence of Ras and Rab interactor 1/Tyrosine-protein kinase ABL1 (Q13671 whole entry): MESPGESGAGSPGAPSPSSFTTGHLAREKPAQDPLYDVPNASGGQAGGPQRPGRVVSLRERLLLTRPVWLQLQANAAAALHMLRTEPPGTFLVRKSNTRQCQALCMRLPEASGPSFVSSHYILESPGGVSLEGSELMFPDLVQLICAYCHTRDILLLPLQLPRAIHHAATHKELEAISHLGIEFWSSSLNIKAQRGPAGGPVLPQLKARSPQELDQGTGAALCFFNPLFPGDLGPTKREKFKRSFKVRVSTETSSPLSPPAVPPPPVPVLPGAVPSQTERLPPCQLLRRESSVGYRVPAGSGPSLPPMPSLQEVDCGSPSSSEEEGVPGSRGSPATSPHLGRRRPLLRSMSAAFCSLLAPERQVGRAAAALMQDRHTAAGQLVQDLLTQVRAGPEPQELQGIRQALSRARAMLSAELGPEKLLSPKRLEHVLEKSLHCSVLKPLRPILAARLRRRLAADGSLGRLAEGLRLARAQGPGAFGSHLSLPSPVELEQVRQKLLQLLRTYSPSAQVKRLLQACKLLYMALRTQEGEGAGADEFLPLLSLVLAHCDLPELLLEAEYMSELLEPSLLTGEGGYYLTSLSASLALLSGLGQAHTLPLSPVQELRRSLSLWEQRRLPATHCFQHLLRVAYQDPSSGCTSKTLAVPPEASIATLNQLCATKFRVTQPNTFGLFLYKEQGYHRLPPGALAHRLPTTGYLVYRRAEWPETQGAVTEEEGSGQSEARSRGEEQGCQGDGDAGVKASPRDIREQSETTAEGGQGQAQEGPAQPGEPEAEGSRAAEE

[8] = target: T3, Apoptotic protease-activating factor 1 (Homo sapiens, UniProt O14727); format: functional
T3 sequence (O14727 whole entry): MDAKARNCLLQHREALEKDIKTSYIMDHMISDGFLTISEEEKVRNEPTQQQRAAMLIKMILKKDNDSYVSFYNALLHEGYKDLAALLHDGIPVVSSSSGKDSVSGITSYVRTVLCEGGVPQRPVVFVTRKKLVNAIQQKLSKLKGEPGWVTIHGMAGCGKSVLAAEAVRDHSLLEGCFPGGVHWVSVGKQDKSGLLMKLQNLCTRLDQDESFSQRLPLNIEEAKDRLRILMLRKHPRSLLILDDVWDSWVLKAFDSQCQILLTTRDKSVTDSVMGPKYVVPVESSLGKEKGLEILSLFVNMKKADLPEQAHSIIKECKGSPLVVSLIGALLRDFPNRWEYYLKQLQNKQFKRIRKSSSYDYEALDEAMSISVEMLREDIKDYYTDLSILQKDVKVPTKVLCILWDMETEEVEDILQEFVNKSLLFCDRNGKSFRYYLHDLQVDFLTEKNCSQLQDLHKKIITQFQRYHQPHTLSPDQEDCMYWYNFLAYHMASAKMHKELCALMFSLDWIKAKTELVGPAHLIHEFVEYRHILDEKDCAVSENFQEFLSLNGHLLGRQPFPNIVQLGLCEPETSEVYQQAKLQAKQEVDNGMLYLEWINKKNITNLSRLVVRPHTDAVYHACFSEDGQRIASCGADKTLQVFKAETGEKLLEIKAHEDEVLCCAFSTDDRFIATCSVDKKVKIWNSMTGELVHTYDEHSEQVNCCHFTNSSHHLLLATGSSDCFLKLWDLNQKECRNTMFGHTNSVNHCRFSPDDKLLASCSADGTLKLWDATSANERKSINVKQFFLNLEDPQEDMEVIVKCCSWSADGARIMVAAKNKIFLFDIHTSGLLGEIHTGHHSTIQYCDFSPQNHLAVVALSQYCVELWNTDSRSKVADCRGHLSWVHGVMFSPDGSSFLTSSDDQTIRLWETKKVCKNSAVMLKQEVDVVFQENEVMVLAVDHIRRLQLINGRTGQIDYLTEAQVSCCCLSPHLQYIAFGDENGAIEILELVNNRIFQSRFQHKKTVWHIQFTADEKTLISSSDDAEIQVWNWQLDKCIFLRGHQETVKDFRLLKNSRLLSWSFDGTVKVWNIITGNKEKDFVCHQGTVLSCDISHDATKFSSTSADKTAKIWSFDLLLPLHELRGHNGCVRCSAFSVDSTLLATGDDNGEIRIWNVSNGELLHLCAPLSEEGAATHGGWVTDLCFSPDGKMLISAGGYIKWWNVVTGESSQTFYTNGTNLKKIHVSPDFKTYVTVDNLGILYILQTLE

[9] = tested on: INS1; assay: beta cell apoptosis inhibitors, cytokine rescue, dose response, luminescence, retest (AID 449756); format: functional, cell-based; conditions: Rattus norvegicus;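 further: cell death triggered by IL-1 beta plus TNF-alpha plus IFN-gamma mixture; protective hits raise ATP signal compared with cytokine alone wells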
[10] = target: T4, Cysteine protease ATG4B (Homo sapiens, UniProt Q9Y4P1); format: functional;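 further: Fluorescence-based dose-response confirmation assay measuring inhibition of ATG4B activity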
T4 sequence (Q9Y4P1 whole entry): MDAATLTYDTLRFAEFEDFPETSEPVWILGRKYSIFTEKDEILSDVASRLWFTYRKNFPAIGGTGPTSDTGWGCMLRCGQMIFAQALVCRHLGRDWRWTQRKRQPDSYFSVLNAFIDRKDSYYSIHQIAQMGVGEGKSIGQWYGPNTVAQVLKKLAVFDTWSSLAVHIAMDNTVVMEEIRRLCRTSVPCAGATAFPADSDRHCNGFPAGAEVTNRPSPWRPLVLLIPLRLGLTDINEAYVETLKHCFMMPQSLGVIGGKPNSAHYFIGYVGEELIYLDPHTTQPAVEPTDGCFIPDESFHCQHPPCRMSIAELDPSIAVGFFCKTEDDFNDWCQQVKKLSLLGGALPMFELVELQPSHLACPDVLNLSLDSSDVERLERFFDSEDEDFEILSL

[11] = target: Phospholipase A2 (Homo sapiens, UniProt P04054); format: functional;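 further: confirmatory dose-response counterscreen on phospholipase A2, testing hits that came from an ultra-high-throughput screen for ATG4B inhibitors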
Sequence of Phospholipase A2 (P04054 whole entry): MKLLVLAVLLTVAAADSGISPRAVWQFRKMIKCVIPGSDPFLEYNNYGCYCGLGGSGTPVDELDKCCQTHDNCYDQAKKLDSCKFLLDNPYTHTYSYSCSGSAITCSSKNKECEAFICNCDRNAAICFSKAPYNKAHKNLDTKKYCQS

[12] = tested on: Vero; assay: Vero cell cytotoxicity, cytotoxicity control for flavivirus capping enzyme inhibitors (AID 588742); format: functional; conditions: Chlorocebus sabaeus
[13] = target: Genome polyprotein (dengue virus type 2, UniProt P29990); assay: Dengue-2 NS5 methyltransferase inhibitors, primary screen, biochemical, confirmation dose response (AID 588689); format: functional
[14] = target: T5, Insulin-degrading enzyme (Homo sapiens, UniProt P14735); assay: activators of recombinant IDE enzyme, dose response, counter-screen for IDE activator project, biochemical, fluorescence polarization (AID 588681)
T5 sequence (P14735 whole entry): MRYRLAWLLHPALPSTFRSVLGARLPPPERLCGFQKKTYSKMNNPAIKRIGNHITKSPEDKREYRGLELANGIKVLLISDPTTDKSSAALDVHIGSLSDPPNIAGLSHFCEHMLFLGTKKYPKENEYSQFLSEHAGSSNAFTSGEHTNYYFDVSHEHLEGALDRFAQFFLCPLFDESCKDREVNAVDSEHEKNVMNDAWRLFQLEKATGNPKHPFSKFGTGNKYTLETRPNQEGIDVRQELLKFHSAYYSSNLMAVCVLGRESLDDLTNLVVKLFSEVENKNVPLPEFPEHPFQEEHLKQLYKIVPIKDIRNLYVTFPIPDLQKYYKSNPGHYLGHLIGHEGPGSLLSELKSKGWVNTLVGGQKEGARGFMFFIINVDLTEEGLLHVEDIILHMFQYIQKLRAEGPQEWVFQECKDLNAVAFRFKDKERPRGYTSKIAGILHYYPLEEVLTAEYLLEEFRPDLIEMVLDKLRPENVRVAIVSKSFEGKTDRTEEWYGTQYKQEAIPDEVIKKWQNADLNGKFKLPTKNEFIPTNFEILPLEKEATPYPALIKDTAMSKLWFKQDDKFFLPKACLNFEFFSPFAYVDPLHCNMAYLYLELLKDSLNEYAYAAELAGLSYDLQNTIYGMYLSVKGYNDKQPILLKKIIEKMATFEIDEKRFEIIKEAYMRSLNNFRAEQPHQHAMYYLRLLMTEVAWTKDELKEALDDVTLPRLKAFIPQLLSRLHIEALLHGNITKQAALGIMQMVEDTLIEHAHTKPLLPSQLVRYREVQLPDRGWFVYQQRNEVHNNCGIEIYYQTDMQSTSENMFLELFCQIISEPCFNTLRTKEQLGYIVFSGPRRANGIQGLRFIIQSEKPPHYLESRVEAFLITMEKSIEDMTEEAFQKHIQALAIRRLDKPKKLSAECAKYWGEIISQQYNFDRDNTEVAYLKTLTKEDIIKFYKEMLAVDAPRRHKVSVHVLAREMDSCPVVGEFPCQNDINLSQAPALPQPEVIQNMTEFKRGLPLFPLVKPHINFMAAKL

[15] = target: T5, Insulin-degrading enzyme; assay: activators of endogenous IDE in HEK cells, dose response, cell-based, fluorescence polarization (AID 588439); format: functional
[16] = tested on: HEK293; assay: HEK cell cytotoxicity by LDH release, dose response, cytotoxicity control for IDE activator project, fluorescence, HEK cells (AID 588440); format: functional, cell-based; conditions: Homo sapiens;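 further: cytotoxicity by LDH release measuring loss of membrane integrity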
[17] = tested on: HEK293; assay: optical interference in Abeta FP readout, dose response, artefact control for IDE activator project, biochemical, fluorescence polarization (AID 588442); format: functional, cell-based; conditions: Homo sapiens
[18] = target: Melanocortin receptor 4 (Homo sapiens, UniProt P32245); format: functional, cell-based;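 further: Cell-based assay with luminescence read-out, confirmatory dose-response testing for agonist activity of biased ligands at MC4R; human U2OS cells with tagged receptor and beta-arrestin; potency of agonists that increase receptor coupling to beta-arrestin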
Sequence of Melanocortin receptor 4 (P32245 whole entry): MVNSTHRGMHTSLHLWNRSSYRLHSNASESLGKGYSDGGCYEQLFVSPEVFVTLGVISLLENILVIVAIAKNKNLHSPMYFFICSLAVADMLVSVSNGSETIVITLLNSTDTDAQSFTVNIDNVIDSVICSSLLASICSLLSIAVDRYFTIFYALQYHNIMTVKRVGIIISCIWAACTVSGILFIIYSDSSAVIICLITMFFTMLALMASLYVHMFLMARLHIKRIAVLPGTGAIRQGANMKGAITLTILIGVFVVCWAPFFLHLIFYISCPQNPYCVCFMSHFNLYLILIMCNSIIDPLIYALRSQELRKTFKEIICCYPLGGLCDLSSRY

[19] = tested on: Vero; assay: cells; format: functional, cell-based; conditions: Chlorocebus sabaeus
[20] = tested on: Vero; assay: cells; format: functional; conditions: Chlorocebus sabaeus
[21] = target: Aryl hydrocarbon receptor (Homo sapiens, UniProt P35869); conditions: Potency;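 further: confirmatory quantitative high-throughput screen measuring activation of the AhR signaling pathway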
Sequence of Aryl hydrocarbon receptor (P35869 whole entry): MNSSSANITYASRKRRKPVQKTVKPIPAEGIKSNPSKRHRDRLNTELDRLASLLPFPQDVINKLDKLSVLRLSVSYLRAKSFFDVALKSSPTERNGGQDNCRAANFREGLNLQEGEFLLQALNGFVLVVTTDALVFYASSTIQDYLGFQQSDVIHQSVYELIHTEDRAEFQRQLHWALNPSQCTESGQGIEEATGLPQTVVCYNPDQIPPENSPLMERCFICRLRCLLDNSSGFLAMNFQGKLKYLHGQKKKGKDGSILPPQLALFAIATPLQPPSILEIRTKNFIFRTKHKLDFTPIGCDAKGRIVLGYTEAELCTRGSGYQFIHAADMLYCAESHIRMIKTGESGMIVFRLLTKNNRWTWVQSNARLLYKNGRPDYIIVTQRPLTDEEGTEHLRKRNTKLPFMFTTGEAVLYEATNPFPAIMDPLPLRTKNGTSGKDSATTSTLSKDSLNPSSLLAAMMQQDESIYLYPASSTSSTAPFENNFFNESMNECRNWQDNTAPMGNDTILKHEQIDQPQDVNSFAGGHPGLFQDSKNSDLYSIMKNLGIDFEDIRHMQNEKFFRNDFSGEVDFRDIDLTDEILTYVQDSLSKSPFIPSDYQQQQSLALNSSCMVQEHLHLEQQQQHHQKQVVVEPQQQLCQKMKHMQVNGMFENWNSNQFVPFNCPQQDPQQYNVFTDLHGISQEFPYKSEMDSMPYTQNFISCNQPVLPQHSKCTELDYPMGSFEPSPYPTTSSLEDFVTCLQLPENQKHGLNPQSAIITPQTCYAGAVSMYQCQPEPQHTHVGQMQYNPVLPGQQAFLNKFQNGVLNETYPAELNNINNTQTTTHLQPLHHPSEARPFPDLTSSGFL

[22] = tested on: P388/ADR; assay: cells; format: functional; conditions: Mus musculus
[23] = tested on: SN12K1; assay: cells; format: functional; conditions: Homo sapiens
[24] = tested on: P388; assay: cells; format: functional; conditions: Mus musculus

CNc1ccc(/C=C(\C#N)C(=O)Nc2ccccn2)cc1[N+](=O)[O-]
EC50 [1]: > 99 µM (inactive)
EC50 [2]: 39.2 µM (inactive)

COC(=O)CSc1nc2cc(OC)ccc2cc1C#N
EC50 [1]: > 99 µM (inactive)
EC50 [2]: 48.4 µM (inactive)

O=C(CN1c2ccccc2Sc2ccccc21)NNC(=S)Nc1ccc(Cl)cc1
EC50 [3]: 3.35 µM (active)
EC50 [4]: > 40 µM (inactive)
IC50 [5]: > 40 µM (not active)
EC50 [6]: 3.6 µM (active)

COc1ccc(/C=C/C(=O)NC(=S)NNC(=O)c2c(-c3ccccc3)noc2C)cc1
EC50 [4]: > 40 µM (inactive)
IC50 [5]: 35.5 µM (not active)

COc1cccc(CSc2nnc(CSc3nc4nc(C)cc(C)n4n3)s2)c1
IC50 [7]: 7.8 µM (active)

Oc1ccc(Br)cc1CNc1cccc2cccnc12
IC50 [8]: 34.6 µM (active)
AC50 [9]: 3.24 µM (active)

Cc1ccccc1S(=O)(=O)N1[C@@H](c2ccc(Br)cc2)C(C(=O)O)=CC[C@H]1c1ccc(Cl)cc1
IC50 [10]: 7.71 µM (active)
IC50 [11]: 6.72 µM (active)
CC50 [12]: > 40 µM (active)
IC50 [13]: 41.4 µM (active)

Cc1ccc(N/C=C(\C#N)S(=O)(=O)c2ccccc2)cc1
EC50 [14]: > 54.7 µM (inactive)
EC50 [15]: > 54.7 µM (inactive)
IC50 [16]: > 89.3 µM (inactive)
EC50 [17]: > 56 µM (inactive)

CC1=C(C(=O)OCc2ccccc2)C(c2ccc(Br)cc2)NC(=O)N1CCCCCC(=O)O (stereo unspecified)
EC50 [14]: > 54.7 µM (inactive)
EC50 [15]: > 54.7 µM (inactive)
IC50 [16]: > 89.2 µM (inactive)
EC50 [17]: > 55.9 µM (inactive)

COc1ccc(-c2cc(NC(C)=O)c3ncc(-c4cccc(C(F)(F)F)c4)n3c2)c(OC)c1
EC50 [18]: > 89.2 µM (inactive)

CN(C)c1ccc(C=C2C(=O)NC(=S)NC2=O)cc1
CC50 [12]: 31.4 µM (active)
IC50 [19]: > 25 µM (active)
CC50 [20]: 22.2 µM (active)

CC1(C)Oc2ccc3ccc(=O)oc3c2C(/C=N/NC(N)=O)=C1O
EC50 [4]: > 40 µM (inactive)
IC50 [5]: > 40 µM (not active)

Cc1nn(C)c(Oc2ccccc2)c1/C=N/OCc1ccc(C(=O)OC(C)(C)C)cc1 [FENPYROXYMATE]
AC50 [21]: 44.7 µM (inconclusive)

O=C1C=C2C(=CCOC2O)O1 (stereo unspecified) [PATULIN]
GI50 [22]: 0.318 µM (active)
GI50 [23]: 0.998 µM (active)
GI50 [24]: 0.135 µM (active)
AC50 [21]: 12.6 µM (inconclusive)
